# Laboratory results: patent EP0348560A1, “Oral composition” (LION CORPORATION, priority 1988, dated 1990)
# System: Streptococcus mutans (strain 6715)
# Assay: Incubation Adhesion Method: inhibition of dental plaque formation
# Assay type: cell-based
# Conditions: for Synergistic effect: class by inhibiting rate; for formation of dental plaque: combined with α-bisabolol, conclusion in words from Table 1
# Description: α-Bisabolol, menthol, eugenol, 3-octanol, methyl salicylate, carvone and cineol are used as samples to evaluate their effects on inhibiting the formation of dental plaque by Incubation Adhesion Method.
# Incubation Adhesion Method
# A predetermined amount (0, 4 or 8 µg/mℓ) of α-bisabolol and 125 µg/mℓ of menthol, eugenol, 3-octanol, methyl salicylate, carvone or cineol were added to a BHI (brain heart infusion) medium containing 1% of sucrose. Then, Streptococcus mutans (strain 6715) was inoculated to the medium and incubated at 37°C for 16 hours under an anaerobic condition (N₂: CO₂ :H₂ = 80:10:10). After incubation, the resulting dental plaque was washed twice with water and dispersed in the same amount of 0.5-N NaOH solution. To determine the amount of dental plaque formed, the suspension of dental plaque was examined for absorbance (turbidity) at a wavelength of 550 nm.
# Inhiviting rate of dental plaque formation (%) [formula] A : Absorbance (O.D. 550nm) of the control B : Absorbance (O.D. 550nm) of the sample
# [1] = 125 µg/mℓ sample alone, content of α-bisabolol 0 µg/mℓ, BHI medium with 1% sucrose, 37°C, 16 hours, anaerobic
# [2] = 125 µg/mℓ sample combined with α-bisabolol 4 µg/mℓ, BHI medium with 1% sucrose, 37°C, 16 hours, anaerobic
# [3] = 125 µg/mℓ sample combined with α-bisabolol 4 µg/mℓ
# [4] = 125 µg/mℓ sample combined with α-bisabolol 8 µg/mℓ, BHI medium with 1% sucrose, 37°C, 16 hours, anaerobic
# [5] = 125 µg/mℓ sample combined with α-bisabolol 8 µg/mℓ
# [6] = α-bisabolol 4 µg/mℓ alone (line 'Control', no sample added)
# [7] = α-bisabolol 8 µg/mℓ alone (line 'Control', no sample added)
Molecule,"Amount of dental plaque formation (O.D., 550nm) [1] [O.D.]",Inhibiting rate of dental plaque formation (%) [1] [%],"Amount of dental plaque formation (O.D., 550nm) [2] [O.D.]",Inhibiting rate of dental plaque formation (%) [2] [%],Synergistic effect [3],"Amount of dental plaque formation (O.D., 550nm) [4] [O.D.]",Inhibiting rate of dental plaque formation (%) [4] [%],Synergistic effect [5],formation of dental plaque,"Amount of dental plaque formation (O.D., 550nm) [6] [O.D.]",Inhibiting rate of dental plaque formation (%) [6] [%],"Amount of dental plaque formation (O.D., 550nm) [7] [O.D.]",Inhibiting rate of dental plaque formation (%) [7] [%]
"CCCCCC(O)CC (stereo not shown) [3-Octanol, 3-octanol]",0.59,4.8,0.58,6.5,× (Inhibiting rate is less than 20%),0.06,90.3,ⓞ (Inhibiting rate is not less than 80%),synergistically suppressed,,,,
"C=C(C)C1CC=C(C)C(=O)C1 (stereo not shown) [Carvone, carvone, reference compound]",0.62,0,0.60,3.2,× (Inhibiting rate is less than 20%),0.42,32.3,"Δ (Inhibiting rate is not less than 20%, less than 50 %)",,,,,
"CC12CCC(CC1)C(C)(C)O2 [Cineol, cineol, reference compound]",0.62,0,0.59,4.8,× (Inhibiting rate is less than 20%),0.53,14.5,× (Inhibiting rate is less than 20%),,,,,
"C=CCc1ccc(O)c(OC)c1 [Eugenol, eugenol]",0.62,0,0.60,3.2,× (Inhibiting rate is less than 20%),0.02,96.8,ⓞ (Inhibiting rate is not less than 80%),synergistically suppressed,,,,
"CC1CCC(C(C)C)C(O)C1 (stereo not shown) [Menthol, menthol]",0.60,3.2,0.01,98.4,ⓞ (Inhibiting rate is not less than 80%),0.01,98.4,ⓞ (Inhibiting rate is not less than 80%),synergistically suppressed,,,,
"COC(=O)c1ccccc1O [Methyl salicylate, methyl salicylate, reference compound]",0.61,1.6,0.61,1.6,× (Inhibiting rate is less than 20%),0.39,37.1,"Δ (Inhibiting rate is not less than 20%, less than 50 %)",,,,,
α-bisabolol,,,,,,,,,,0.61,1.6,0.60,3.2
